# Assay: Water sorption test (DVS, hygroscopicity)
# Type: physicochemical
# Settings: humidity range of 10-90% r.h.
# Experimental: By low hygroscopicity is meant, within the scope of the present invention, that in sorption experiments on the compound of formula (I) a water uptake of less than 1% is observed in the humidity range of 10-90% investigated.
# A DVS-1 made by Surface Measurement Systems (=SMS) is used to test the hygroscopic characteristics: the following humidity profiles are used: 10-90% r.h. in 10% steps, recording both a sorption and a desorption profile, typical weights: 10-20 mg
structure (smiles),measurement,value
"COc1cc2ncnc(Nc3cccc(Cl)c3F)c2cc1O[C@H]1CC[C@@]2(CC1)NCCNC2=O.O=C(O)/C=C\C(=O)O.O=C(O)/C=C\C(=O)O [(I), (trans)-9-[4-(3-chloro-2-fluoro-phenylamino)-7-methoxy-quinazolin-6-yloxy]-1,4-diaza-spiro[5.5]undecan-5-one dimaleic acid compound]",water uptake in sorption experiments,less than 1%

# Source: patent publication US8906931B1, “9-[4-(3-chloro-2-fluoro-phenylamino-7-methoxy-quinazoline-6-yloxy]-1,4-diaza-spiro[5.5]undecane-5-one dimaleate, use thereof as a medicament and method for the production thereof” (Boehringer Ingelheim International GmbH, priority 2011, dated 2014)
